For this assay, the system named is CD2F1 mice, L1210 leukemia ip, survival T/C. The experiment in a line: NCI In Vivo Anticancer Drug Screen. Data for tumor model L1210 Leukemia (intraperitoneal) in CD2F1 (CDF1) mice. The settings on record: higher = longer survival. An outline of the steps:
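Antitumor effect is scored in animals hosting a serially transplanted tumor. Values compare compound-dosed animals against vehicle-only controls as a simple quotient.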

Setting [1] is: endpoint: mean survival time, dose: 100.0 mg/kg/injection, schedule: Q04DX003 (ip), vehicle: saline with Tween-80.
The mark [2] stands for this setting: endpoint: mean survival time, dose: 200.0 mg/kg/injection, schedule: Q04DX003 (ip), vehicle: saline with Tween-80.
Setting [3] is: endpoint: mean survival time, dose: 400.0 mg/kg/injection, schedule: Q04DX003 (ip), vehicle: saline with Tween-80.
The mark [4] stands for this setting: endpoint: mean survival time, dose: 100.0 mg/kg/injection, schedule: Q01DX001 (ip), vehicle: saline with Tween-80.
Where [5] appears, read: endpoint: mean survival time, dose: 200.0 mg/kg/injection, schedule: Q01DX001 (ip), vehicle: saline with Tween-80.
Setting [6] is: endpoint: mean survival time, dose: 400.0 mg/kg/injection, schedule: Q01DX001 (ip), vehicle: saline with Tween-80.
The mark [7] stands for this setting: endpoint: mean survival time, dose: 100.0 mg/kg/injection, schedule: Q01DX009 (ip), vehicle: saline with Tween-80.
The mark [8] stands for this setting: endpoint: mean survival time, dose: 200.0 mg/kg/injection, schedule: Q01DX009 (ip), vehicle: saline with Tween-80.
Where [9] appears, read: endpoint: mean survival time, dose: 400.0 mg/kg/injection, schedule: Q01DX009 (ip), vehicle: saline with Tween-80.
Where [10] appears, read: endpoint: mean survival time, dose: 25.0 mg/kg/injection, schedule: Q01DX009 (ip), vehicle: saline with Tween-80.
[11] abbreviates: endpoint: mean survival time, dose: 50.0 mg/kg/injection, schedule: Q01DX009 (ip), vehicle: saline with Tween-80.

Several values for one entry are separate records, joined by “and”; a condition that tells them apart may be missing. Equal values may be shown once. Toxic doses and inconclusive results are not listed.

`CN(C)c1ccc(C2(O)C3CCC2CC3)cc1` (centres undefined): the T/C is 90 % of control (endpoint: median survival time, dose: 25.0 mg/kg/injection, schedule: Q04DX002 (ip), vehicle: saline with Tween-80); 100 % of control (endpoint: median survival time, dose: 50.0 mg/kg/injection, schedule: Q04DX002 (ip), vehicle: saline with Tween-80); 90 % of control (endpoint: median survival time, dose: 100.0 mg/kg/injection, schedule: Q04DX002 (ip), vehicle: saline with Tween-80).
As for `CCN(C(=O)Nc1cccc2ccccc12)c1ccccc1`, the T/C reads like this: under setting [1], 104 % of control; under setting [2], 101 % of control; under setting [3], 109 % of control.
In the case of `CN(N=C(C1CC1)C1CC1)c1ccccc1`, the T/C is 100 % of control under setting [4], 107 % of control under setting [5] and 105 % of control under setting [6].
For `CCOC(CSCC#N)OCC`, the T/C is 102 % of control (endpoint: mean survival time, dose: 12.5 mg/kg/injection, schedule: Q01DX009 (ip), vehicle: saline sonified); 98 % of control (endpoint: mean survival time, dose: 12.5 mg/kg/injection, schedule: Q04DX003 (ip), vehicle: saline sonified); 104 % of control (endpoint: mean survival time, dose: 25.0 mg/kg/injection, schedule: Q01DX009 (ip), vehicle: saline sonified); 98 % of control (endpoint: mean survival time, dose: 25.0 mg/kg/injection, schedule: Q04DX003 (ip), vehicle: saline sonified); 102 % of control (endpoint: mean survival time, dose: 50.0 mg/kg/injection, schedule: Q01DX009 (ip), vehicle: saline sonified); 98 % of control (endpoint: mean survival time, dose: 50.0 mg/kg/injection, schedule: Q04DX003 (ip), vehicle: saline sonified).
Consider `O=C1c2ccccc2CCC1(Br)Cc1ccccc1` (centres undefined), for which the T/C by setting is: under setting [4], 98 % of control; under setting [5], 96 % of control; under setting [6], 94 % of control.
Take `Cc1ccc(S(=O)(=O)/C=C(\Cl)S(=O)(=O)C(C)(C)C)cc1`: the T/C is, setting by setting: (endpoint: mean survival time, dose: 25.0 mg/kg/injection, schedule: Q01DX001 (ip), vehicle: saline with Tween-80) 93 % of control; (endpoint: mean survival time, dose: 50.0 mg/kg/injection, schedule: Q01DX001 (ip), vehicle: saline with Tween-80) 104 % of control.
Take `C=CCON(C)c1ccccc1`: the T/C reads like this: under setting [7], 94 % of control; under setting [8], 90 % of control; under setting [9], 99 % of control.
For the compound `C=CCN(CC=C)CCNc1cc(C)nc(Nc2nc3ccc(Cl)cc3[nH]2)n1`, the T/C under setting [4] is 94 % of control; the T/C under setting [7] is 86 % of control; the T/C under setting [5] is 92 % of control; the T/C under setting [8] was 93 % of control; the T/C under setting [6] is 94 % of control; the T/C under setting [9] is 100 % of control.
As for `O=C(O)C(O)C(O)C(=O)O.[NH-]C1CCCCCC1[NH-].[Pt+2]` (centres undefined), the T/C (endpoint: mean survival time, dose: 2.5 mg/kg/injection, schedule: Q04DX003 (ip), vehicle: dextrose) was 123 % of control; the T/C (endpoint: mean survival time, dose: 5.0 mg/kg/injection, schedule: Q04DX003 (ip), vehicle: dextrose) is 153 % of control; the T/C (endpoint: mean survival time, dose: 20.0 mg/kg/injection, schedule: Q04DX003 (ip), vehicle: dextrose) is 152 % of control and 273 % of control.
With `[C-]#[N+]C1CCCCC1.[C-]#[N+]C1CCCCC1.[Pd].[S-]c1ccccc1.[S-]c1ccccc1`, the T/C (endpoint: mean survival time, dose: 3.13 mg/kg/injection, schedule: Q04DX003 (ip), vehicle: distilled water + Tween-80) is 102 % of control; the T/C (endpoint: mean survival time, dose: 6.25 mg/kg/injection, schedule: Q04DX003 (ip), vehicle: distilled water + Tween-80) was 99 % of control; the T/C (endpoint: mean survival time, dose: 12.5 mg/kg/injection, schedule: Q04DX003 (ip), vehicle: distilled water + Tween-80) is 89 % of control; the T/C (endpoint: mean survival time, dose: 25.0 mg/kg/injection, schedule: Q04DX003 (ip), vehicle: distilled water + Tween-80) is 91 % of control; the T/C (endpoint: mean survival time, dose: 50.0 mg/kg/injection, schedule: Q04DX003 (ip), vehicle: distilled water + Tween-80) was 95 % of control; the T/C (endpoint: mean survival time, dose: 100.0 mg/kg/injection, schedule: Q04DX003 (ip), vehicle: distilled water + Tween-80) was 89 % of control. The T/C (endpoint: mean survival time, dose: 200.0 mg/kg/injection, schedule: Q04DX003 (ip), vehicle: distilled water + Tween-80) was 95 % of control.
Consider `CC(O)C(O)C(O)C(O)CO` (centres undefined) (tested in a mixture with another compound), for which the T/C is 87 % of control (endpoint: mean survival time, dose: 75.0 mg/kg/injection, schedule: Q01DX001 (ip), vehicle: saline with Tween-80); 93 % of control (endpoint: mean survival time, dose: 150.0 mg/kg/injection, schedule: Q01DX001 (ip), vehicle: saline with Tween-80); 86 % of control (endpoint: mean survival time, dose: 300.0 mg/kg/injection, schedule: Q01DX001 (ip), vehicle: saline with Tween-80).
Take `CC12CCC(=O)CC1CCC1C2CCC2(C)C(C(=O)O)CCC12` (centres undefined): the T/C runs as follows: under setting [4], 96 % of control; under setting [5], 102 % of control; under setting [6], 96 % of control.
In the case of `[C-]#[O+].[C-]#[O+].[C-]#[O+].[C-]#[O+].[C-]#[O+].[C-]#[O+].[Cr]`, the T/C was 103 % of control under setting [10]; 97 % of control and 110 % of control under setting [11]; 112 % of control under setting [7].
Consider `O=C(O)c1ccccc1NCNc1ccccc1C(=O)O`, for which the T/C by setting is: under setting [1], 100 % of control; under setting [2], 93 % of control; under setting [3], 110 % of control.
Regarding `CCOC(=O)Nc1cc2c(c(N)n1)NC(CN(C)c1ccccc1)CN2` (centres undefined), the T/C reads like this: (endpoint: mean survival time, dose: 100.0 mg/kg/injection, schedule: Q01DX001 (ip), vehicle: Klucel (hydroxypropylcellulose) (HPC)) 94 % of control; (endpoint: mean survival time, dose: 200.0 mg/kg/injection, schedule: Q01DX001 (ip), vehicle: Klucel (hydroxypropylcellulose) (HPC)) 103 % of control; (endpoint: mean survival time, dose: 400.0 mg/kg/injection, schedule: Q01DX001 (ip), vehicle: Klucel (hydroxypropylcellulose) (HPC)) 110 % of control.
With `CNCc1ccc2c(c1)OCO2`, the T/C by setting is: (endpoint: mean survival time, dose: 75.0 mg/kg/injection, schedule: Q01DX001 (ip), vehicle: saline) 100 % of control; (endpoint: mean survival time, dose: 150.0 mg/kg/injection, schedule: Q01DX001 (ip), vehicle: saline) 103 % of control.
On to `O=[N+]([O-])c1ccc2c([N+](=O)[O-])ccc3c2c1CC3`, for which the T/C under setting [1] is 100 % of control, the T/C under setting [2] is 109 % of control and the T/C under setting [3] was 97 % of control.
Regarding `CN1CCN(C(=S)S)CC1`, the T/C (endpoint: mean survival time, dose: 12.5 mg/kg/injection, schedule: Q01DX009 (ip), vehicle: saline with Tween-80) was 100 % of control; the T/C under setting [10] was 95 % of control; the T/C under setting [11] was 100 % of control.
Consider `O=C1/C(=C/c2ccccc2)CCS(=O)(=O)c2ccccc21`, for which the T/C by setting is: under setting [4], 97 % of control; under setting [5], 97 % of control; under setting [6], 90 % of control.
`O=C(O)/C=C/C(=O)Nc1ccccc1[N+](=O)[O-]`: the T/C reads like this: under setting [11], 102 % of control; under setting [7], 104 % of control; under setting [8], 94 % of control.
For `CCCCOC(=O)CNC(=O)c1ccc(C)c(OCc2ccccc2)c1[N+](=O)[O-]`, the T/C was 100 % of control (endpoint: mean survival time, dose: 75.0 mg/kg/injection, schedule: Q01DX001 (ip), vehicle: steriod suspending solution); 100 % of control (endpoint: mean survival time, dose: 150.0 mg/kg/injection, schedule: Q01DX001 (ip), vehicle: steriod suspending solution); 100 % of control (endpoint: mean survival time, dose: 300.0 mg/kg/injection, schedule: Q01DX001 (ip), vehicle: steriod suspending solution).
Take `NC(=S)NC(=O)c1ccccc1`: the T/C was 94 % of control under setting [1], 94 % of control under setting [2] and 94 % of control under setting [3].
Take `O=P(O)(O)OCC1OC(n2cnc3c(NCc4ccccc4)ncnc32)C(O)C1O` (centres undefined): the T/C reads like this: (endpoint: mean survival time, dose: 12.5 mg/kg/injection, schedule: Q01DX005 (ip), vehicle: other) 104 % of control; (endpoint: mean survival time, dose: 25.0 mg/kg/injection, schedule: Q01DX005 (ip), vehicle: other) 100 % of control; (endpoint: mean survival time, dose: 50.0 mg/kg/injection, schedule: Q01DX005 (ip), vehicle: other) 104 % of control; (endpoint: mean survival time, dose: 100.0 mg/kg/injection, schedule: Q01DX005 (ip), vehicle: other) 117 % of control.
For `CC(=O)NC(C=O)CC(C=O)CO` (centres undefined), the T/C (endpoint: mean survival time, dose: 50.0 mg/kg/injection, schedule: Q01DX009 (ip), vehicle: saline) is 103 % of control; the T/C (endpoint: mean survival time, dose: 50.0 mg/kg/injection, schedule: Q04DX003 (ip), vehicle: saline) is 107 % of control; the T/C (endpoint: mean survival time, dose: 100.0 mg/kg/injection, schedule: Q01DX009 (ip), vehicle: saline) is 107 % of control; the T/C (endpoint: mean survival time, dose: 100.0 mg/kg/injection, schedule: Q04DX003 (ip), vehicle: saline) is 109 % of control; the T/C (endpoint: mean survival time, dose: 150.0 mg/kg/injection, schedule: Q04DX003 (ip), vehicle: saline) was 108 % of control; the T/C (endpoint: mean survival time, dose: 200.0 mg/kg/injection, schedule: Q01DX009 (ip), vehicle: saline) was 95 % of control.

Values taken from PubChem BioAssay AID256 (DTP/NCI, 2004).
